# Literature values in paper PMC7692329, “Inhibitory Effect of AB-PINACA, Indazole Carboxamide Synthetic Cannabinoid, on Human Major Drug-Metabolizing Enzymes and Transporters” (Pharmaceutics, 2020).
# Where two headings read alike, the source gives them in different places.
# Key:
# CYP3A4 = conditions: cited from earlier work
# CYP2C8 = conditions: cited from earlier work
# CYP2D6 = conditions: read-out: Ki, CYP2D6; cited from earlier work
# CYP2C9 = conditions: cited from earlier work
# CYP2B6 = conditions: read-out: Ki, CYP2B6; cited from earlier work
# CYP2C19 = conditions: cited from earlier work
# [1] = child, chewing an AB-PINACA contaminated cigarette; cited from earlier work
# UGT2B7 = tested on: UGT2B7; design: method as in PMID 28287454; conditions: cited from earlier work
# UGT1A3 = conditions: cited from earlier work
# UGT1A9 = conditions: read-out: Ki, UGT1A9; noncompetitive inhibition; cited from earlier work
# [2] = tested on: OCT1/2, OAT1/3, and OATP1B1/1B3; design: method as in PMID 31430908; conditions: cited from earlier work
# CES1 = tested on: CES1; design: method as in PMID 25346527; conditions: 100 μM benzil, human liver microsomes; cited from earlier work
# [3] = read-out: Ki, CYP3A4 (time-dependent), time-dependent inhibition
smiles,measurement,setting,value
"CC(C)C(NC(=O)c1nn(Cc2ccc(F)cc2)c2ccccc12)C(N)=O (stereo not shown) [AB-FUBINACA, N-(1-amino-3-methyl-1-oxobutan-2-yl)-1-(4-fluorobenzyl)-1H-indazole-3-carboxamide]",inhibition of CYP3A4,CYP3A4,did not inhibited
same,Ki,"CYP2C8; read-out: Ki, CYP2C8",19.9 µM
same,Ki,CYP2D6,20.8 µM
same,Ki,"CYP2C9; read-out: Ki, CYP2C9",13.1 µM
same,Ki,CYP2B6,15 µM
same,Ki,"CYP2C19; read-out: Ki, CYP2C19",6.3 µM
CC(C)C(NC(=O)c1nn(CCCCC(=O)O)c2ccccc12)C(N)=O (stereo not shown) [AB-PINACA pentanoic acid],serum level,[1],345 ng/mL
O=C(c1cccc2ccccc12)c1cn(CCCCCF)c2ccccc12 [AM-2201],IC50,"CYP3A4; read-out: IC50, CYP3A4",4 µM
same,IC50,"CYP2C9; read-out: IC50, CYP2C9",3.9 µM
same,IC50,UGT2B7,10 µM
same,IC50,UGT1A3,4.3 µM
"CCCCCn1nc(C(=O)NC23CC4CC(CC(C4)C2)C3)c2ccccc21 [APINACA, N-(1-adamantyl)-1-pentyl-1H-indazole-3-carboxamide]",Ki,UGT1A9,5.9 µM
same,Ki,CYP3A4; [3],4.5 µM
same,"kinact, CYP3A4",CYP3A4; time-dependent inhibition,0.04686 min⁻¹
same,"kinact/Ki, CYP3A4",CYP3A4; time-dependent inhibition,172 M⁻¹ s⁻¹
same,"inhibition of transport activity of OCT1/2, OAT1/3, and OATP1B1/1B3",[2],did not inhibit
CCc1ccc(C(=O)c2cn(CCCCCF)c3ccccc23)c2ccccc12 [EAM-2201],Ki,CYP3A4; [3],4.1 µM
same,"kinact, CYP3A4",CYP3A4; time-dependent inhibition,0.0250 min⁻¹
same,"kinact/Ki, CYP3A4",CYP3A4; time-dependent inhibition,115 M⁻¹ s⁻¹
same,Ki,"CYP2C8; read-out: Ki, CYP2C8 (time-dependent), time-dependent inhibition",0.54 µM
same,"kinact, CYP2C8",CYP2C8; time-dependent inhibition,0.0633 min⁻¹
same,Ki,"CYP2C9; read-out: Ki, CYP2C9 (time-dependent), time-dependent inhibition",3 µM
same,"kinact, CYP2C9",CYP2C9; time-dependent inhibition,0.0462 min⁻¹
same,Ki,"CYP2C19; read-out: Ki, CYP2C19 (time-dependent), time-dependent inhibition",3.8 µM
same,"kinact, CYP2C19",CYP2C19; time-dependent inhibition,0.0264 min⁻¹
same,Ki,UGT1A3; competitive inhibition,2.4 µM
Cc1ccc(C(=O)c2cn(CCCCCF)c3ccccc23)c2ccccc12 [MAM-2201],Ki,"CYP3A4; read-out: Ki, CYP3A4",5.4 µM
same,Ki,"CYP2C9; read-out: Ki, CYP2C9",5.6 µM
same,Ki,UGT1A3,5 µM
O=C(C(=O)c1ccccc1)c1ccccc1 [benzil],effect on formation of AB-PINACA carboxylic acid,CES1,abolished
CC[C@H]1OC(=O)[C@H](C)[C@@H](O[C@H]2C[C@@](C)(OC)[C@@H](O)[C@H](C)O2)[C@H](C)[C@@H](O[C@@H]2O[C@H](C)C[C@H](N(C)C)[C@H]2O)[C@](C)(OC)C[C@@H](C)C(=O)[C@H](C)[C@@H](O)[C@]1(C)O [clarithromycin],"inactivation efficiency (kinact/Ki), CYP3A4",CYP3A4; representative clinical CYP3A4-mediated drug interactions,46.7 M⁻¹ s⁻¹
